From the supplement of paper PMC10307832

Experiments:
Assay in all cases: relative viability (nuclei count vs DMSO), 5 days (fraction); higher = more cells survive
[1] = test system: A-427
In short: (§1)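 Each reported value is a median over duplicate plates. It expresses relative viability: treated-well nuclei count divided by vehicle-well nuclei count. Lung cancer cell lines in 1536-well plates were dosed by pin tool a day after seeding, alone with one drug or with a fixed anchor-drug dose plus five library-drug doses (not always all listed) in √10 steps, and nuclei were counted after 5 days.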

[2] = test system: EPLC-272H
In short: as §1

[3] = test system: HCC-15
In short: as §1

[4] = test system: LC-2-ad
In short: as §1

[5] = test system: LK-2
In short: as §1

[6] = test system: NCI-H1734
In short: as §1

[7] = test system: NCI-H1793
In short: as §1

[8] = test system: NCI-H1915
In short: as §1

[9] = test system: NCI-H1944
In short: as §1

[10] = test system: NCI-H2009
In short: as §1

[11] = test system: NCI-H2023
In short: as §1

[12] = test system: NCI-H2347
In short: as §1

[13] = test system: NCI-H322M
In short: as §1

[14] = test system: NCI-H441
In short: as §1

[15] = test system: NCI-H647
In short: as §1

[16] = test system: NCI-H838
In short: as §1

[17] = test system: RERF-LC-KJ
In short: as §1

[18] = test system: SW 1573
In short: as §1

[19] = test system: UMC-11
In short: as §1

Cc1cn(-c2cc(NC(=O)c3ccc(C)c(Nc4nccc(-c5cccnc5)n4)c3)cc(C(F)(F)F)c2)cn1 [Nilotinib] + CC1(C)CCC(c2ccc(Cl)cc2)=C(CN2CCN(c3ccc(C(=O)NS(=O)(=O)c4ccc(N[C@H](CCN5CCOCC5)CSc5ccccc5)c(S(=O)(=O)C(F)(F)F)c4)cc3)CC2)C1 [Navitoclax] (partner 0.5 µM)
relative viability ([1]; first compound 0.001 µM): 0.984
relative viability ([1]; first compound 0.01 µM): 0.998
relative viability ([1]; first compound 0.03162 µM): 0.908
relative viability ([1]; first compound 0.1 µM): 0.923
relative viability ([2]; first compound 0.001 µM): 1.1
relative viability ([2]; first compound 0.003162 µM): 1.32
relative viability ([2]; first compound 0.01 µM): 1.5
relative viability ([2]; first compound 0.03162 µM): 0.804
relative viability ([2]; first compound 0.1 µM): 1.28
relative viability ([3]; first compound 0.001 µM): 0.631
relative viability ([3]; first compound 0.003162 µM): 0.824
relative viability ([3]; first compound 0.01 µM): 0.716
relative viability ([3]; first compound 0.03162 µM): 0.511
relative viability ([3]; first compound 0.1 µM): 0.57
relative viability ([4]; first compound 0.001 µM): 0.376
relative viability ([4]; first compound 0.003162 µM): 0.396
relative viability ([4]; first compound 0.01 µM): 0.467
relative viability ([4]; first compound 0.03162 µM): 0.339
relative viability ([4]; first compound 0.1 µM): 0.365
relative viability ([5]; first compound 0.001 µM): 0.759
relative viability ([5]; first compound 0.003162 µM): 0.939
relative viability ([5]; first compound 0.01 µM): 1
relative viability ([5]; first compound 0.03162 µM): 0.743
relative viability ([5]; first compound 0.1 µM): 0.945
relative viability ([6]; first compound 0.001 µM): 0.704
relative viability ([6]; first compound 0.003162 µM): 1.03
relative viability ([6]; first compound 0.01 µM): 1.06
relative viability ([6]; first compound 0.03162 µM): 0.434
relative viability ([6]; first compound 0.1 µM): 0.543
relative viability ([7]; first compound 0.003162 µM): 0.452
relative viability ([7]; first compound 0.01 µM): 0.587
relative viability ([7]; first compound 0.03162 µM): 0.385
relative viability ([7]; first compound 0.1 µM): 0.275
relative viability ([8]; first compound 0.001 µM): 0.764
relative viability ([8]; first compound 0.003162 µM): 0.813
relative viability ([8]; first compound 0.01 µM): 0.807
relative viability ([8]; first compound 0.03162 µM): 0.751
relative viability ([8]; first compound 0.1 µM): 0.781
relative viability ([9]; first compound 0.001 µM): 1.03
relative viability ([9]; first compound 0.003162 µM): 1.13
relative viability ([9]; first compound 0.01 µM): 1.22
relative viability ([9]; first compound 0.03162 µM): 1.12
relative viability ([9]; first compound 0.1 µM): 0.987
relative viability ([10]; first compound 0.001 µM): 1.09
relative viability ([10]; first compound 0.003162 µM): 1.19
relative viability ([10]; first compound 0.01 µM): 1.21
relative viability ([10]; first compound 0.03162 µM): 1.19
relative viability ([10]; first compound 0.1 µM): 1.23
relative viability ([11]; first compound 0.001 µM): 0.914
relative viability ([11]; first compound 0.003162 µM): 1.13
relative viability ([11]; first compound 0.01 µM): 1.32
relative viability ([11]; first compound 0.03162 µM): 1.02
relative viability ([11]; first compound 0.1 µM): 1.02
relative viability ([12]; first compound 0.001 µM): 0.81
relative viability ([12]; first compound 0.003162 µM): 0.959
relative viability ([12]; first compound 0.01 µM): 1.05
relative viability ([12]; first compound 0.03162 µM): 0.662
relative viability ([12]; first compound 0.1 µM): 0.695
relative viability ([13]; first compound 0.001 µM): 1.09
relative viability ([13]; first compound 0.003162 µM): 1.51
relative viability ([13]; first compound 0.03162 µM): 0.954
relative viability ([13]; first compound 0.1 µM): 1.16
relative viability ([14]; first compound 0.001 µM): 0.499
relative viability ([14]; first compound 0.003162 µM): 0.667
relative viability ([14]; first compound 0.01 µM): 0.568
relative viability ([14]; first compound 0.1 µM): 0.493
relative viability ([15]; first compound 0.001 µM): 0.952
relative viability ([15]; first compound 0.003162 µM): 1.42
relative viability ([15]; first compound 0.01 µM): 1.26
relative viability ([15]; first compound 0.03162 µM): 0.997
relative viability ([15]; first compound 0.1 µM): 0.974
relative viability ([16]; first compound 0.001 µM): 1.09
relative viability ([16]; first compound 0.003162 µM): 1.42
relative viability ([16]; first compound 0.01 µM): 1.54
relative viability ([16]; first compound 0.03162 µM): 1.05
relative viability ([16]; first compound 0.1 µM): 1.15
relative viability ([17]; first compound 0.001 µM): 1.07
relative viability ([17]; first compound 0.003162 µM): 0.949
relative viability ([17]; first compound 0.01 µM): 1.24
relative viability ([17]; first compound 0.03162 µM): 1.15
relative viability ([17]; first compound 0.1 µM): 1.08
relative viability ([18]; first compound 0.001 µM): 1.05
relative viability ([18]; first compound 0.003162 µM): 1.23
relative viability ([18]; first compound 0.01 µM): 1.14
relative viability ([18]; first compound 0.03162 µM): 0.792
relative viability ([18]; first compound 0.1 µM): 1.01
relative viability ([19]; first compound 0.001 µM): 0.303
relative viability ([19]; first compound 0.003162 µM): 0.303
relative viability ([19]; first compound 0.01 µM): 0.317
relative viability ([19]; first compound 0.1 µM): 0.301
